Assays:
[1] = system: ILK; assay: ILK localization, expression and activation (immunocytochemistry, Western); type: cell-based
Description: Because recruitment of ILK to the focal adhesion complex is important for its activation, the effects of thymosin β4 on ILK localization and expression were assayed. […] Because thymosin β4 sequesters the pool of G-actin monomers, the effects on ILK activation were dependent on thymosin β4's role in regulating the balance between polymerized F-actin and monomeric G-actin were tested. F-actin polymerization was inhibited using C3 transferase and also F-actin formation was promoted with an activated Rho, but neither intervention affected the ILK activation observed after treatment of COS1 or C2C 12 cells with thymosin β4.

[2] = system: cardiac endothelial cells; assay: collagen gel assay, transformation of cardiac endothelial cells to mesenchymal cells; type: cell-based; details: Tβ4 at physiological concentrations
Description: Synthetic Tβ4 and an antibody to Tβ4 was provided by RegeneRx Biopharmaceuticals, Inc. (3 Bethesda Metro Center, Suite 700, Bethesda, Md. 20814) and were tested in a collagen gel assay to determine their effects on the Transformation of cardiac endothelial cells to mesenchymal cells. It is well established that development of heart valves and other cardiac tissue are formed by epithelial-mesenchymal transformation and that defects in this process can cause serious cardiovascular malformation and injury during development and throughout life. […] Transformation of atrioventricular endocardium into invasive mesenchyme is an aspect of the formation and maintenance of normal cardiac tissue and in the formation of heart valves.
Synthetic Tβ4 and an antibody to Tβ4 was provided by RegeneRx Biopharmaceuticals, Inc. (3 Bethesda Metro Center, Suite 700, Bethesda, Md. 20814) and were tested in a collagen gel assay to determine their effects on the Transformation of cardiac endothelial cells to mesenchymal cells. It is well established that development of heart valves and other cardiac tissue are formed by epithelial-mesenchymal transformation and that defects in this process can cause serious cardiovascular malformation and injury during development and throughout life. […]

[3] = system: myocardial infarction; assay: myocardial infarction by coronary artery ligation, echocardiography and histology; type: in vivo, mice
Description: Because of thymosin β4's effects on survival and migration of cardiomyocytes cultured in vitro and phosphorylation of Akt, it was tested whether thymosin β4 might aid in cardiac repair in vivo after myocardial damage. Myocardial infarctions in fifty-eight adult mice were created by coronary artery ligation and treated half with systemic, intracardiac, or systemic plus intracardiac thymosin β4 immediately after ligation and the other half with PBS. Intracardiac injections were done with collagen (control) or collagen mixed with thymosin β4. All forty-five mice that survived two weeks later were interrogated for cardiac function by random-blind ultrasonagraphy at 2 and 4 weeks after infarction by multiple measurements of cardiac contraction. […] Control cardiac injections were performed with the same collagen vehicle making it unlikely that an endogenous reaction to the injection contributed to the cardiac recovery.
To determine the manner in which thymosin β4 improved cardiac function, multiple serial histologic sections of hearts treated with or without thymosin β4 were examined. […] TUNEL positive cells that were also myocytes were rare in the thymosin β4 group but abundant in the control hearts. […] Thus, the decreased scar volume and preserved function of thymosin β4 treated mice were likely due to early preservation of myocardium after infarction through thymosin β4's effects on survival of cardiomyocytes.
Embryonic or adult cardiac tissue was embedded in paraffin and sections used for immunohistochemistry. […] Adult hearts were sectioned at ten equivalent levels from the base of the heart to the apex. Serial sections were used for trichrome sections and reaction with sarcomeric a-actinin, c-kit, Sca-1, Abcg2, and BrdU antibodies and for TUNEL assay (Intergen Company # S7111).
Myocardial infarction was produced in fifty-eight male C57BL/6J mice at 16 weeks of age (25-30 g) by ligation of the left anterior descending coronary artery as previously described. Twenty-nine of the ligated mice received thymosin β4 treatment immediately following ligation and the remaining twenty-nine received PBS injections. Treatment was given intracardiac with thymosin β4 (200 ng in 10 ul collagen) or with 10 ul of collagen; intraperitoneally with thymosin β4 (150 μg in 300 μl PBS) or with […]; or by both intracardiac and intraperitoneal injections. Intraperitoneal injections were given every three days until mice were sacrificed. Doses were based on previous studies of thymosin β4 biodistribution. Hearts were removed, weighed and fixed for histologic sectioning. Additional mice were operated on in a similar fashion for studies 0.5, 1, 3, 6 and 11 days after ligation.
Echocardiograms to assess systolic function were performed using M-mode and 2-dimensional measurements as described previously. The measurements represented the average of six selected cardiac cycles from at least two separate scans performed in random-blind fashion with papillary muscles used as a point of reference for consistency in level of scan. End diastole was defined as the maximal left ventricle (LV) diastolic dimension and end systole was defined as the peak of posterior wall motion. Single outliers in each group were omitted for statistical analysis. Fractional shortening (FS), a surrogate of systolic function, was calculated from LV dimensions as follows: FS=EDD−ESD/EDD×100%. Ejection fraction (EF) was calculated from two-dimensional images. EDD, end diastolic dimension; ESD, end systolic dimension.
Scar volume was calculated using six sections through the heart of each mouse using Openlab 3.03 software (Improvision) similar to previously described. Percent area of collagen deposition was measured on each section in blinded fashion and averaged for each mouse.

[4] = four weeks after infarction, versus control

thymosin β4
ILK protein levels by Western analysis ([1]; C2C12 cells): modest increase
total Akt protein ([1]; C2C12 cells): unchanged
phosphorylation of Akt (serine 473) ([1]; C2C12 cells, phospho-specific antibody): increased phosphorylation
ILK detection by immunocytochemistry around the cell edges ([1]; embryonic heart explants or C2C12 myoblasts, synthetic thymosin β4 10 ng/100 ul or expressing plasmid): markedly enhanced
transformation of endocardial cells to mesenchymal cells [2]: markedly enhances
cardiac dilation after infarction (EDD and ESD) ([3]; EDD and ESD significantly higher in control group): decreased cardiac dilation
degree of improvement, systemic intraperitoneal versus local intracardiac administration ([3]; echocardiography): not statistically different
mean fractional shortening of left ventricle ([3]; four weeks after infarction, n=23, 95% confidence interval, p<0.0001, control 23.2): 37.2+/−1.8%
mean ejection fraction ([3]; four weeks after infarction, n=23, 95% confidence interval, p<0.0001, control 28.2): 57.7+/−3.2%
improvement in cardiac fractional shortening [3, 4]: greater than 60%
improvement in ejection fraction [3, 4]: > 100%
scar volume ([3]; six levels of sections through left ventricle, subset of mice, p<0.05): significant reduction
left ventricle fractional shortening ([3]; three days after infarction, intracardiac treatment, n=4, 95% confidence interval, p<0.02, controls 28.8): 39.2+/−2.34%
ejection fraction ([3]; three days after infarction, intracardiac treatment, p<0.02, controls 44.7): 64.2+/−6.69%
size of scar (trichrome stain) ([3]; three levels of section, all treated mice): reduced
cell death by TUNEL assay in cardiomyocytes ([3]; twenty-four hours after ligation): striking decrease
